This passage reports TGI results from PubChem BioAssay (NCI).

Holding throughout (experiment): NCI tumour cell line growth inhibition, 48 h
For experiment [1], the system named is A498 renal.
Experiment [2] relates to A549 NSCLC.
Experiment [3] has as its system BT-549 breast.
In experiment [4] the test system is DU-145 prostate.
The test system of experiment [5] is HCT-15 colon.
Experiment [6] deals with IGROV1 ovarian.
Experiment [7] relates to K-562 leukemia.
The test system of experiment [8] is M14 melanoma.
In experiment [9] the test system is MALME-3M melanoma.
For experiment [10], the system named is MDA-N.
Experiment [11] deals with NCI-H522 lung.
In experiment [12] the test system is OVCAR-4 ovarian.
The subject of experiment [13] is PC-3 prostate.
For experiment [14], the system named is SK-MEL-5 melanoma.
The subject of experiment [15] is SK-OV-3 ovarian.
Experiment [16] deals with SNB-75 CNS.
For experiment [17], the system named is SW-620 colon.
Experiment [18] has as its system T-47D breast.
The subject of experiment [19] is UACC-257 melanoma.
The subject of experiment [20] is UO-31 renal.

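Tested at 5 concentrations; 48 h exposure; 96-well plates; endpoints linearly interpolated, else capped at highest concentration. TGI denotes the concentration required for complete inhibition of growth.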 Bounds are passed on as bounds.

`O=c1c2nn3c(=O)n(-c4ccccc4)c(=O)c3nn2c(=O)n1-c1ccccc1`: the TGI in [1], in [2], in experiment [3], in experiment [4], in [5] and in [6] was greater than 100 µM each time. Also, the TGI in experiment [7], in experiment [8], in experiment [9], in experiment [10], in [11] and in experiment [12] was greater than 100 µM throughout. Moreover, the TGI in experiment [13], in experiment [14], in [15], in experiment [16], in [17] and in [18] was greater than 100 µM throughout. For the same compound, the TGI in experiment [19] and in experiment [20] was greater than 100 µM in each case.

For the compound `O=C(/C=C(\O)c1ccccc1)C(=O)NNc1ccc([N+](=O)[O-])cc1[N+](=O)[O-]`, the TGI in [1] was found to be 70.4 µM; in experiment [2], 34.1 µM; in [3], 48.2 µM; in experiment [4], 32.9 µM; in experiment [5], 35.4 µM; in experiment [6], 38.2 µM. Also, the TGI in [7] turned out to be 95.1 µM; in experiment [8], 31.3 µM; in experiment [9] it was 82.4 µM; in experiment [10], 78.1 µM; in experiment [11] it was 82.4 µM; in [12] it was 95 µM. The TGI in experiment [13] was 44.9 µM; in [14], 60.1 µM; in [15], 41.6 µM; in experiment [16] it was 30.9 µM; in experiment [17], 34 µM; in [18] it was 48.5 µM. Besides, the TGI in [19] was 99.8 µM; in experiment [20], 27.5 µM.

Take `O=c1cc(NNc2ccccc2)[nH]c(=S)[nH]1`: the TGI in experiment [1] was greater than 100 µM; in [2], greater than 100 µM; in [3], greater than 100 µM; in experiment [4], greater than 100 µM; in experiment [5] it was 42.1 µM; in experiment [6], greater than 100 µM. The TGI is 80.2 µM in [7]; greater than 100 µM in [8]; greater than 100 µM in experiment [9]; greater than 100 µM in experiment [10]; 35.7 µM in experiment [11]; greater than 100 µM in [12]. Further, the TGI in experiment [13] was greater than 100 µM; in experiment [14], greater than 100 µM; in [15], greater than 100 µM; in [16], greater than 100 µM; in [17], 49.5 µM; in experiment [18], greater than 100 µM. Also, the TGI in [19] and in experiment [20] was greater than 100 µM throughout.

In the case of `COc1ccc2oc(=N)c(C(=O)NCc3ccccc3)cc2c1`, the TGI in experiment [1] was 35.1 µM; in [2] it was greater than 100 µM; in experiment [3], 45.4 µM; in [4], 88.8 µM; in experiment [5] it was greater than 100 µM; in experiment [6] it was 60.8 µM. Besides, the TGI in experiment [7] is 86.8 µM; in [8], greater than 100 µM; in [9], 39.3 µM; in experiment [10], 59.9 µM; in experiment [11], 43.5 µM; in experiment [12], greater than 100 µM. Besides, the TGI in experiment [13] is greater than 100 µM; in [14], greater than 100 µM; in experiment [15], 56.7 µM; in experiment [16], 35 µM; in [17], 55.6 µM; in experiment [18], 44.6 µM. For the same compound, the TGI in experiment [19] and in [20] was greater than 100 µM throughout.

With `N=c1oc2c(Cl)cc(Cl)cc2cc1C(=O)Nc1cccc2ccccc12`, the TGI was 23.7 µM in [1]; greater than 100 µM in experiment [2]; greater than 100 µM in experiment [3]; greater than 100 µM in [4]; greater than 100 µM in [5]; 40.6 µM in experiment [6]. The TGI in experiment [7] was greater than 53.3 µM; in experiment [8], greater than 100 µM; in experiment [9], greater than 100 µM; in [10] it was greater than 100 µM; in [11], greater than 100 µM; in experiment [12], 6.37 µM. The TGI in experiment [13] is greater than 100 µM; in experiment [14], greater than 100 µM; in experiment [15], greater than 77.6 µM; in experiment [16] it was 10.9 µM; in [17], 27.1 µM; in [18], 25.2 µM. For the same compound, the figures for the TGI in experiment [19] and in experiment [20] were greater than 100 µM and greater than 40.9 µM, respectively.

For the compound `O=CC(=C(I)I)c1ccccc1`, the TGI came to 40.7 µM in [1]; 41.8 µM in experiment [2]; 14.1 µM in [3]; 19.5 µM in [4]; 5.01 µM in [5]; 11.2 µM in experiment [6]. Besides, the TGI in [7] turned out to be 1.34 µM; in [8], 4.6 µM; in experiment [9], 4.4 µM; in experiment [10], 4.81 µM; in experiment [11] it was 4.06 µM; in experiment [12] it was 4.37 µM. The TGI is 13.7 µM in experiment [13]; 14 µM in experiment [14]; 29.9 µM in experiment [15]; 9.97 µM in experiment [16]; 2.17 µM in experiment [17]; 9.18 µM in experiment [18]. Also, the TGI worked out at 8.05 µM in experiment [19] and 7.63 µM in [20].

Consider `O=C(Cc1ccccc1)NNc1nc(NNC(=O)c2ccncc2)nc(Nc2ccc([N+](=O)[O-])cc2)n1`, for which the TGI in experiment [1], in experiment [2], in [3], in experiment [4], in experiment [5] and in [6] was greater than 10 µM in each case. Besides, the TGI in [7], in experiment [8], in [9], in [10], in experiment [11] and in experiment [12] was greater than 10 µM in each case. For the same compound, the TGI in experiment [13], in experiment [14], in experiment [15], in experiment [16], in experiment [17] and in experiment [18] was greater than 10 µM each time. For the same compound, the TGI in [19] and in [20] was greater than 10 µM each time.
